According to US20160039880A1 (priority 2012, published 2016):
Converted amounts (≈) assume the structure as drawn. Like-named read-outs stand apart in the source and are kept apart here.

Key:
[1] = molecular target: T1, Human recombinant cyclophilin A (Cyp A) (Homo sapiens, UniProt P62937);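 also: cis to trans isomerization of SUC-AAPF-pNA by 2 nM enzyme, read as absorbance at 330 nm over 300 s at 10 °C, catalytic rate corrected for uncatalyzed background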
[2] = molecular target: T1, Human recombinant cyclophilin A (Cyp A); experiment: Protease-free PPIase assay;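 also: cis to trans isomerization of SUC-AAPF-pNA by 2 nM enzyme, read as absorbance at 330 nm over 300 s at 10 °C, catalytic rate corrected for uncatalyzed background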
[3] = Water Solubility Assay (measured in pH 7.8 buffer); assay type: physicochemical; conditions: kinetic from dmso stock;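 also: precipitation onset detected as rise in absorbance at 650 nm across increasing concentrations, after shaking for 18 h, blank wells receiving DMSO only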
Experimental: The aqueous solubility of a compound of Formula I in buffer (pH 7.8) was measured by recording the onset of precipitation of the compound as a function of increasing concentration. The onset of precipitation, if it occurred, was detected by an increase in absorbance at 650 nm.
Assay Buffer: 35 mM HEPES pH 7.8
Stock solutions of Control and Test Compounds: 10 mM in 100% DMSO
10 mM stock solutions of control and test compounds were prepared in 100% DMSO.
Assay buffer (247.5 μl) was placed into flat bottomed transparent 96-well plate. For blank samples DMSO (2.5 μl) was added. For test and control samples 2.5 μl of the appropriate DMSO dilution stocks were added to the appropriate well. All test and control compounds were performed in triplicate.
The plates were sealed with adhesive plate seal and shaken at 250 rpm at 25° C. for 18 h on a plate shaker.
After incubation the plate seals were taken off and any bubbles observed in wells removed. The plates were read on a SpectraMaxM5 with a 5 s pre-shake at 650 nm.
Data files were transferred to the appropriate worksheet and the solubility range of the compounds was calculated from the data.

[4] = 35 mM HEPES buffer pH 7.8, 25 °C, aqueous buffer, pH 7.8 buffer, read-out: Water Solubility Assay

T1 sequence (P62937 whole entry): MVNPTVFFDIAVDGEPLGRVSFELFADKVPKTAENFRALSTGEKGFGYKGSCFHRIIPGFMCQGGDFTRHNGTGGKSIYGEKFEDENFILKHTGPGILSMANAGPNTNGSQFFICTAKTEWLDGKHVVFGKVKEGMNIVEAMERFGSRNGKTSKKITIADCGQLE

SMILES	Ki [1]	Ki [2]	solubility at 18 h [3, 4]	solubility at 18 h ([3]; 25 °C, pH 7.8, aqueous buffer)
CC[C@H]1NC(=O)[C@@H]([C@H](O)[C@H](C)CCN2CCN(C)CC2)N(C)C(=O)[C@@H](C(C)C)N(C)C(=O)[C@@H](CC(C)C)N(C)C(=O)[C@@H](CC(C)C)N(C)C(=O)[C@H](C)NC(=O)[C@@H](C)NC(=O)[C@@H](CC(C)C)N(C)C(=O)[C@@H](C(C)C)NC(=O)[C@H](CC(C)C)N(C)C(=O)CN(C)C1=O [Compound LL]	46 nM	–	–	–
CC[C@H]1NC(=O)[C@@H]([C@H](O)[C@H](C)CCN(C)CC2COCCO2)N(C)C(=O)[C@@H](C(C)C)N(C)C(=O)[C@@H](CC(C)C)N(C)C(=O)[C@@H](CC(C)C)N(C)C(=O)[C@H](C)NC(=O)[C@@H](C)NC(=O)[C@@H](CC(C)C)N(C)C(=O)[C@@H](C(C)C)NC(=O)[C@H](CC(C)C)N(C)C(=O)[C@@H](C)N(C)C1=O (stereo partly drawn) [Compound AJ, [(3R,4R,5S)-4-Hydroxy-3-methyl-5-(methylamino)-1-(1,4-dioxan-2-ylmethyl)methylamino-hexanoic acid]^1[(R)-methyl-Sar]^3 cyclosporin A]	12 nM	–	–	–
CC[C@H]1NC(=O)[C@@H]([C@H](O)[C@H](C)CCN2CCSCC2)N(C)C(=O)[C@@H](C(C)C)N(C)C(=O)[C@@H](CC(C)C)N(C)C(=O)[C@@H](CC(C)C)N(C)C(=O)[C@H](C)NC(=O)[C@@H](C)NC(=O)[C@@H](CC(C)C)N(C)C(=O)[C@@H](C(C)C)NC(=O)[C@H](CC(C)C)N(C)C(=O)[C@@H](C)N(C)C1=O [Compound J, [(3R,4R,5S)-4-Hydroxy-3-methyl-5-(methylamino)-1-(thiomorpholino)-hexanoic acid]^1[(R)-Me-Sar]^3 cyclosporin A]	3.7 nM	–	–	–
CC[C@H]1NC(=O)[C@@H]([C@H](O)[C@H](C)CCN2CCNC(=O)C2)N(C)C(=O)[C@@H](C(C)C)N(C)C(=O)[C@@H](CC(C)C)N(C)C(=O)[C@@H](CC(C)C)N(C)C(=O)[C@H](C)NC(=O)[C@@H](C)NC(=O)[C@@H](CC(C)C)N(C)C(=O)[C@@H](C(C)C)NC(=O)[C@H](CC(C)C)N(C)C(=O)CN(C)C1=O [Compound NN]	120 nM	–	–	–
CCC1NC(=O)C(C(O)C(C)CCCN2CCOCC2)N(C)C(=O)C(C(C)C)N(C)C(=O)C(CC(C)C)N(C)C(=O)C(CC(C)C)N(C)C(=O)C(C)NC(=O)C(C)NC(=O)C(CC(C)C)N(C)C(=O)C(C(C)C)NC(=O)C(CC(C)C)N(C)C(=O)CN(C)C1=O [Compound EI, [(4R,5R,6S)-5-Hydroxy-4-methyl-6-(methylamino)-1-(morpholin-4-yl)-heptanoic acid]^1 cyclosporin A]	14 nM	–	–	–
CC[C@H]1NC(=O)[C@@H]([C@H](O)[C@H](C)CCN2CCOCC2)N(C)C(=O)[C@@H](C(C)C)N(C)C(=O)[C@@H](CC(C)C)N(C)C(=O)[C@@H](CC(C)C)N(C)C(=O)[C@H](C)NC(=O)[C@@H](C)NC(=O)[C@@H](CC(C)C)N(C)C(=O)[C@@H](C(C)C)NC(=O)[C@H](CC(C)C)N(C)C(=O)[C@@H](C)N(C)C1=O [Compound F, [(3R,4R,5S)-4-(hydroxy)-3-methyl-5-(methylamino)-1-(morpholin-4-yl)hexanoic acid]^1[(R)-Me-Sar]^3 cyclosporin A]	4.5 nM	–	–	–
CC(C)CC1C(=O)NC(C(C)C)C(=O)N(C)C(CC(C)C)C(=O)NC(C)C(=O)NC(C)C(=O)N(C)C(CC(C)C)C(=O)N(C)C(CC(C)C)C(=O)N(C)C(C(C)C)C(=O)N(C)C(C(O)C(C)CCN2CCOCC2)C(=O)NC(C(C)C)C(=O)N(C)CC(=O)N1C [Compound AN, [(3R,4R,5S)-4-(hydroxy-3-methyl-5-(methylamino)-1-N-morpholino-hexanoic acid]^1 cyclosporin D]	15 nM	–	–	–
CC[C@H]1NC(=O)[C@@H]([C@H](O)[C@H](C)CCN2CCOC(c3ccccc3)C2)N(C)C(=O)[C@@H](C(C)C)N(C)C(=O)[C@@H](CC(C)C)N(C)C(=O)[C@@H](CC(C)C)N(C)C(=O)[C@H](C)NC(=O)[C@@H](C)NC(=O)C(CC(C)C)N(C)C(=O)[C@@H](C(C)C)NC(=O)[C@H](CC(C)C)N(C)C(=O)[C@@H](C)N(C)C1=O (stereo partly drawn) [Compound DZ, [(3R,4R,5S)-4-Hydroxy-3-methyl-5-(methylamino)-1-(2-phenyl-morpholin-4-yl)-hexanoic acid]^1[(R)-methyl-Sar]^3 cyclosporin A]	–	6 nM	25 to 50 µM (≈ 33.8 to 67.6 µg/mL)	–
CC[C@H]1NC(=O)[C@@H]([C@H](O)[C@H](C)CCN(C)Cc2cncn2C)N(C)C(=O)[C@@H](C(C)C)N(C)C(=O)[C@@H](CC(C)C)N(C)C(=O)[C@@H](CC(C)C)N(C)C(=O)[C@H](C)NC(=O)[C@@H](C)NC(=O)[C@@H](CC(C)C)N(C)C(=O)[C@@H](C(C)C)NC(=O)[C@H](CC(C)C)N(C)C(=O)[C@@H](C)N(C)C1=O [Compound DI, [(3R,4R,5S)-4-Hydroxy-3-methyl-5-(methylamino)-1-({3-methyl-3H-imidazol-4-ylmethyl}-methylamino)-hexanoic acid]^1[(R)-methyl-Sar]^3 cyclosporin A]	–	4.3 nM	> 100 µM	–
CC[C@H]1NC(=O)[C@@H]([C@H](O)[C@H](C)CCN2CCOCC2)N(C)C(=O)[C@@H](C(C)C)N(C)C(=O)[C@@H](CC(C)C)N(C)C(=O)[C@@H](CC(C)C)N(C)C(=O)[C@H](C)NC(=O)[C@@H](C)NC(=O)[C@@H](CC(C)C)N(C)C(=O)[C@@H](C(C)C)NC(=O)[C@H](CC(C)C)N(C)C(=O)[C@@H](COC)N(C)C1=O [Compound D, [(3R,4R,5S)-4-Hydroxy-3-methyl-5-(methylamino)-1-N-morpholino-hexanoic acid]^1[(R)-methoxymethylene-Sar]^3 cyclosporin A]	–	10 nM	–	75 to 100 µM (≈ 97.9 to 131 µg/mL)
CC[C@H]1NC(=O)[C@@H]([C@H](O)[C@H](C)CCN(C)CC(C)C#N)N(C)C(=O)[C@@H](C(C)C)N(C)C(=O)[C@@H](CC(C)C)N(C)C(=O)[C@@H](CC(C)C)N(C)C(=O)[C@H](C)NC(=O)[C@@H](C)NC(=O)[C@@H](CC(C)C)N(C)C(=O)[C@@H](C(C)C)NC(=O)[C@H](CC(C)C)N(C)C(=O)[C@@H](C)N(C)C1=O (stereo partly drawn) [Compound DK, [(3R,4R,5S)-1-({2-Cyano-propyl}-methyl-amino)-4-hydroxy-3-methyl-5-(methylamino)-hexanoic acid]^1[(R)-methyl-Sar]^3 cyclosporin A]	–	13 nM	–	> 100 µM
CC[C@H]1NC(=O)[C@@H]([C@H](O)[C@H](C)CCN(Cc2ccccn2)Cc2ccccn2)N(C)C(=O)[C@@H](C(C)C)N(C)C(=O)[C@@H](CC(C)C)N(C)C(=O)[C@@H](CC(C)C)N(C)C(=O)[C@H](C)NC(=O)[C@@H](C)NC(=O)[C@@H](CC(C)C)N(C)C(=O)[C@@H](C(C)C)NC(=O)[C@H](CC(C)C)N(C)C(=O)[C@@H](C)N(C)C1=O [Compound DB, [(3R,4R,5S)-1-(Bis{pyridin-2-ylmethyl}amino)-4-hydroxy-3-methyl-5-(methylamino)-hexanoic acid]^1[(R)-methyl-Sar]^3 cyclosporin A]	–	7.4 nM	75 to 100 µM (≈ 104 to 139 µg/mL)	–
CC[C@H]1NC(=O)[C@@H]([C@H](O)[C@H](C)CCN2CCOC[C@@H]2C)N(C)C(=O)[C@@H](C(C)C)N(C)C(=O)[C@@H](CC(C)C)N(C)C(=O)[C@@H](CC(C)C)N(C)C(=O)[C@H](C)NC(=O)[C@@H](C)NC(=O)C(CC(C)C)N(C)C(=O)[C@@H](C(C)C)NC(=O)[C@H](CC(C)C)N(C)C(=O)[C@@H](C)N(C)C1=O (stereo partly drawn) [Compound DW, [(3R,4R,5S)-4-Hydroxy-3-methyl-5-(methylamino)-1-((S)-3-methyl-morpholin-4-yl)-hexanoic acid]^1[(R)-methyl-Sar]^3 cyclosporin A]	–	6.5 nM	–	> 100 µM
